Data set [1] can be described thus: Concentration measurement in brain after oral administration. The class given is in vivo. As to conditions: ICR mice (male, 7 weeks old), single dose of 5 mg/kg, whole brain, LC/MS/MS. On the procedure: Each of the compounds of the present invention shown in Tables 40 and 41 and the compound of Example 2 of JP 2012-229208 A was orally administered to ICR mice (male, 7 weeks old) in a single dose of 5 mg/kg. At 3, 6 and 9 hours after the administration, 1, 3, 6 and 9 hours after the administration, or 1, 3, 6, 9 and 24 hours after the administration, the mice were subjected to perfusion by infusing physiological saline into the heart under inhalational anesthesia with isoflurane, and the whole brain was harvested. Physiological saline was added to the harvested brain in an amount equal to twice the wet weight of the brain and the brain was homogenized. Then, an equal volume of methanol was added thereto, and the mixture was deproteinized. The concentration of each compound in the sample was measured by LC/MS/MS.

Data set [2] concerns the target Recombinant three-repeat microtubule-binding domain (3R-MBD) of tau protein (Homo sapiens, UniProt P10636). In words: Determination of tau aggregation inhibitory activity (thioflavin T fluorescence, heparin-induced). Conditions: for IC50: 10 μM tau 3R-MBD, 10 μM heparin, 37° C. for 16 hours, thioflavin T; for Emax: 16 h, maximum inhibition at the concentrations used (0.1, 0.3, 1, 3, and 10 μM). The data set is classed as biochemical. The protocol:
Recombinant three-repeat microtubule-binding domain (3R-MBD) of tau protein was expressed in E. coli and was purified and used for the experiment. The purified tau solution was diluted with a 50 mM Tris-HCl buffer (pH 7.6) to a final concentration of 10 μM. The test compounds were prepared using dimethylsulfoxide (hereinafter also referred to as DMSO) at 20-fold of their final concentrations and added to the tau solution so that the DMSO concentration would be 5%. To this solution, heparin was added so that the final concentration would be 10 μM and the plate was left to stand at 37° C. for 16 hours. Thioflavin T was added to the plate so that the concentration would be 10 μM and the fluorescence intensity was measured with a fluorescence plate reader (PerkinElmer, Inc.)(excitation wavelength: 440 nm; fluorescence wavelength: 486 nm). The final concentration of each compound at the time of measurement was set at 0.1, 0.3, 1, 3, and 10 μM. The sample to which only DMSO was added was used as a negative control and its fluorescence intensity was taken as 0% inhibitory activity to determine the 50% inhibitory concentration (IC50) of each compound.

Structures are written as SMILES.

Chain of Recombinant three-repeat microtubule-binding domain (3R-MBD) of tau protein (P10636 2-758 limits assumed): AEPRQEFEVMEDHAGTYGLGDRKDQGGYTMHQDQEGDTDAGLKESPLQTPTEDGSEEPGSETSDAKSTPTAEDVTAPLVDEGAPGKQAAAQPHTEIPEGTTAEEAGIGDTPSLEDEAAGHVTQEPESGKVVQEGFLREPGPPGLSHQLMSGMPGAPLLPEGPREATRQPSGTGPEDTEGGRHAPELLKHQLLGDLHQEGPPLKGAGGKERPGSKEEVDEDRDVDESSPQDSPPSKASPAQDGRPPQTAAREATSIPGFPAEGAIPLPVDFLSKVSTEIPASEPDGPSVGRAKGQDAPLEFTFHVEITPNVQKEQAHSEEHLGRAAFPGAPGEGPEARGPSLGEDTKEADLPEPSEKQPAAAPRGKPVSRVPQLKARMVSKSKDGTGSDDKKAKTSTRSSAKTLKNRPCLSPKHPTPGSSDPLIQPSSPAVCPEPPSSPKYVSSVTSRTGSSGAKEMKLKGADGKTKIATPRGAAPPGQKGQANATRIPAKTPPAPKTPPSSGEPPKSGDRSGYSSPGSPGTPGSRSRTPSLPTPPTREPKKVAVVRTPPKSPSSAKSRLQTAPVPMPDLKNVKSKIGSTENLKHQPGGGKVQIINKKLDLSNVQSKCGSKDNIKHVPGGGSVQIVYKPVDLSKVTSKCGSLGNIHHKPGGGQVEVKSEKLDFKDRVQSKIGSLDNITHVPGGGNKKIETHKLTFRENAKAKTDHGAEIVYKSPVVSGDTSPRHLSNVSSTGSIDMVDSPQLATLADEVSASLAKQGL

As to `COc1cc(OCCc2ccccn2)ccc1/C=C/c1cc(/C=C/c2ccc3ccn(C)c3c2)[nH]n1` [Example 44-2, 6-[(E)-2-[3-[(E)-2-[2-methoxy-4-[2-(2-pyridyl)ethoxy]phenyl]vinyl]-1H-pyrazol-5-yl]vinyl]-1-methylindole], in data set [1], the “AUC0-9 h in brain” value was found to be 869 ng · hr/g-tissue.

The term IC50 denotes the point on the concentration scale where inhibition reaches its midpoint. With `C(=C\c1cc(/C=C/c2ccc3cc[nH]c3c2)[nH]n1)/c1cccc(OCCN2CCOCC2)c1` [Example 53-2, 4-[2-[3-[(E)-2-[5-[(E)-2-(1H-indol-6-yl)vinyl]-1H-pyrazol-3-yl]vinyl]phenoxy]ethyl]morpholine], the IC50 in data set [2] was found to be 840 nM.

`Cn1ccc2ccc(/C=C/c3cc(/C=C/c4ccc(OCc5ccccn5)cc4F)n[nH]3)cc21` [Example 16-2, 6-[(E)-2-[3-[(E)-2-[2-fluoro-4-(2-pyridylmethoxy)phenyl]vinyl]-1H-pyrazol-5-yl]vinyl]-1-methyl indole]: the IC50 in data set [2] was found to be 600 nM.

As usually defined, the Emax is the greatest response seen or fitted, relative to the assay's reference. For `COc1cc(OCc2ccccn2)ccc1/C=C/c1cc(/C=C/c2cccn2C)[nH]n1` [Example 22-2, 2-[[3-methoxy-4-[(E)-2-[5-[(E)-2-(1-methylpyrrol-2-yl)vinyl]-1H-pyrazol-3-yl]vinyl]phenoxy]methyl]pyridine], in data set [2], the IC50 stood at 660 nM and the Emax was 90%. Also, in data set [1], the “AUC0-9 h in brain” value is 458 ng · hr/g-tissue.

With `CN1CCCN(c2ccc(/C=C/c3cc(/C=C/c4cccn4C)[nH]n3)cc2)CC1` [Example 28-2, 1-methyl-4-[4-[(E)-2-[5-[(E)-2-(1-methylpyrrol-2-yl)vinyl]-1H-pyrazol-3-yl]vinyl]phenyl]-1,4-diazepane], in data set [2], the Emax stood at 93%.

For the molecule `COc1cc(OCc2ccccn2)ccc1/C=C/c1cc(/C=C/c2ccnn2C)[nH]n1` [Example 42-2, 2-[[3-methoxy-4-[(E)-2-[5-[(E)-2-(2-methylpyrazol-3-yl)vinyl]-1H-pyrazol-3-yl]vinyl]phenoxy]methyl]pyridine], in data set [2], the IC50 is 830 nM.

In the case of `COc1cc(OCCN2CCOCC2)ccc1/C=C/c1cc(/C=C/c2cccn2C)[nH]n1` [Example 21-2, 4-[2-[3-methoxy-4-[(E)-2-[5-[(E)-2-(1-methylpyrrol-2-yl)vinyl]-1H-pyrazol-3-yl]vinyl]phenoxy]ethyl]morpholine], in data set [2], the Emax stood at 89%.

Regarding `Cn1cccc1/C=C/c1cc(/C=C/c2ccc(OCc3ccccn3)cc2)n[nH]1` [Example 20-3, 2-[[4-[(E)-2-[5-[(E)-2-(1-methylpyrrol-2-yl)vinyl]-1H-pyrazol-3-yl]vinyl]phenoxy]methyl]pyridine], in data set [2], the IC50 is 550 nM and the maximum response (Emax) was 89%. Besides, in data set [1], the “AUC0-24 h in brain” value is 5306 ng · hr/g-tissue.

Take `CN1CCN(c2ccc(/C=C/c3cc(/C=C/c4ccc5ccn(C)c5c4)[nH]n3)cc2)CC1` [Example 18-2, 1-methyl-6-[(E)-2-[3-[(E)-2-[4-(4-methylpiperazin-1-yl)phenyl]vinyl]-1H-pyrazol-5-yl]vinyl]indole]: in data set [1], the “AUC0-24 h in brain” value is on record as 9781 ng · hr/g-tissue.

Consider `Cn1cccc1/C=C/c1cc(/C=C/c2ccc(OCc3ccccn3)cc2F)n[nH]1` [Example 19-4, 2-[[3-fluoro-4-[(E)-2-[5-[(E)-2-(1-methylpyrrol-2-yl)vinyl]-1H-pyrazol-3-yl]vinyl]phenoxy]methyl]pyridine], for which, in data set [2], the IC50 was found to be 510 nM. Moreover, the “AUC0-24 h in brain” value in data set [1] stood at 3499 ng · hr/g-tissue.

Turning to `COc1cc(OCc2ccccn2)ccc1/C=C/c1cc(/C=C/c2ccc(C)n2C)[nH]n1` [Example 23-2, 2-[[4-[(E)-2-[5-[(E)-2-(1,5-dimethylpyrrol-2-yl)vinyl]-1H-pyrazol-3-yl]vinyl]-3-methoxyphenoxy]methyl]pyridine], in data set [2], the IC50 worked out at 590 nM and the Emax is 92%.

Take `Cn1ccc2ccc(/C=C/c3cc(/C=C/c4ccc(OCc5ccccn5)cc4)n[nH]3)cc21` [Example 17-2, 1-methyl-6-[(E)-2-[3-[(E)-2-[4-(2-pyridylmethoxy)phenyl]vinyl]-1H-pyrazol-5-yl]vinyl]indole]: the IC50 in data set [2] was found to be 650 nM.

For the molecule `Cc1cc(OCc2ccccn2)ccc1/C=C/c1cc(/C=C/c2cccn2C)[nH]n1` [Example 32-5, 2-[[3-methyl-4-[(E)-2-[5-[(E)-2-(1-methylpyrrol-2-yl)vinyl]-1H-pyrazol-3-yl]vinyl]phenoxy]methyl]pyridine], in data set [2], the IC50 is 640 nM and the Emax was 90%.

For `CN1CCCN(c2ccc(/C=C/c3cc(/C=C/c4ccc5ccn(C)c5c4)[nH]n3)cc2)CC1` [Example 43-2, 1-methyl-6-[(E)-2-[3-[(E)-2-[4-(4-methyl-1,4-diazepan-1-yl)phenyl]vinyl]-1H-pyrazol-5-yl]vinyl]indole], in data set [2], the Emax was determined as 92%.

With `COc1cc(OCCN2CCOCC2)ccc1/C=C/c1cc(/C=C/c2ccc3ccn(C)c3c2)[nH]n1` [Example 14-2, 4-[2-[3-methoxy-4-[(E)-2-[5-[(E)-2-(1-methylindol-6-yl)vinyl]-1H-pyrazol-3-yl]vinyl]phenoxy]ethyl]morpholine], the “AUC0-24 h in brain” value in data set [1] was 24639 ng · hr/g-tissue.

On to `CN1CCN(c2ccc(/C=C/c3cc(/C=C/c4cccn4C)[nH]n3)cc2)CC1` [Example 27-3, 1-methyl-4-[4-[(E)-2-[5-[(E)-2-(1-methylpyrrol-2-yl)vinyl]-1H-pyrazol-3-yl]vinyl]phenyl]piperazine], for which, in data set [2], the Emax turned out to be 91%. In addition, in data set [1], the “AUC0-24 h in brain” value was determined as 1302 ng · hr/g-tissue.

As for `COc1cc(OCc2ccccn2)ccc1/C=C/c1cc(/C=C/c2cccc(C)n2)[nH]n1` [Example 25-2, 2-[(E)-2-[3-[(E)-2-[2-methoxy-4-(2-pyridylmethoxy)phenyl]vinyl]-1H-pyrazol-5-yl]vinyl]-6-methylpyridine], the IC50 in data set [2] came out at 840 nM.

The values are drawn from US9321752B2, “Pyrazole derivative” (GREEN TECH CO., LTD., priority 2012, dated 2016).
